Data on four compounds can be found in patent US4824834A, “Pyrazolotriazine compounds” (Otsuka Pharmaceutical Company, Limited, priority 1986, dated 1989).

The target of test [1] is T1, Xanthine oxidase (Mus musculus, UniProt Q00519).
T1 construct: The small intestine was homogenized in 4-fold volume of cooled phosphate buffered saline solution (PBS) and then centrifuged; from tissue; host or cells: small intestine of ICR strain mice; dialysed supernatant of a 105,000 g centrifugation
The test is described as follows: Xanthine oxidase inhibition (in vitro), mouse small intestine xanthine oxidase solution, HPLC of uric acid. It counts as biochemical, mouse (ICR strain mice. As to conditions: xanthine substrate, incubated at 37° C. for 5 minutes; HPLC UV 292 nm. The protocol: (1) Preparation of Xanthine Oxidase Solution
ICR strain mice were decapitated and the small intestine of each mouse was rapidly perfused with cooled physiological saline solution and removed. The small intestine was homogenized in 4-fold volume of cooled phosphate buffered saline solution (PBS) and then centrifuged at 105,000 g for 60 minutes. The supernatant fluid was dialyzed overnight against PBS. The dialyzed solution thus prepared was stored at -20° C. until used.
(2) Preparation of the Solution Containing the Present Compound
The compound of this invention was dissolved in DMSO (200 μl) and 2N NaOH (100 μl), and then PBS was added to prepare a solution (25 ml) containing 10^-3 M of the compound of this invention. This solution was diluted with PBS to prepare solutions containing the compound in the concentration of 10^-4, 10^-5, 10^-6, 10^-7, 10^-8, 10^-9, 10^-10, and 10^-11 M, respectively.
(3) Method for the Measurement
The assay mixture, consisted of the composition mentioned below, was incubated at 37° C. for 5 minutes. The reaction was stopped by heating in boiling water for one minute. Twenty microliters of the supernatant was analyzed by high performance liquid chromatography (HPLC) under the conditions mentioned below.
Xanthine oxidase solution (diluted in 4-folds with PBS): 200 μl
Solution containing the present compound: 200 μl
Column: osmosil packed column (.phi. 4. mm×150 mm, 5C18×300)
(§1) Eluting solution: 10 mM phosphate buffer (pH 6.0)
(§2) Retention time: 2.4 minutes (uric acid)
(4) Percent Inhibition of the Compound Against Xanthine Oxidase
The percent inhibition was calculated by the following equation. [formula]
As to each of the solutions containing the present compound as prepared in the above (2), the percent inhibition was calculted, and IC50 values were obtained from a plot of the percent inhibition against the log of the concentration of the compound of this invention.

In test [2] the test system is uric acid in serum. Description: Lowering effect of test compound on the level of uric acid in serum (in vivo, oral administration). As to conditions: Mus musculus, 4 hours after administration, male ICR mice, suspended in 0.5% CMC-Na, read-out: in vivo Lowering rate (%) of uric acid in serum (in 4 hours). More on the design: species or system mouse (normal male ICR mice). Here is the method:
Experiment 2 (In Vivo: Oral Administration)
(1) Animals, Method of Administration and Sampling of Serum
Normal male ICR mice (weighting about 30 g), were provided normal diet and tap water ad libitum. A test compound suspended in 0.5% CMC-Na was administered orally to the mice (each group: 6 mice) in a dose of 5 mg/kg.
(2) Measurement of Amount of Uric Acid in Serum
To the serum (200 μl) was added 10% perchloric acid (100 μl), and the mixture was centrifuged. To the supernatant fluid (100 μl) was added 0.2M Na2 HPO4 (200 μl), and the mixture (20 μl) was analyzed by HPLC to measure the amount of uric acid. The HPLC was carried out under the following conditions.
Column: Cosmosil packed column (.phi. 4.6 mm×150 mm, 5C18 -300)
as §1, §2
(3) Lowering Effect of Test Compound on the Level of Uric Acid in Serum
The lowering rate of uric acid in serum was calculated by the following equation. [formula]

T1 sequence (Q00519 whole entry): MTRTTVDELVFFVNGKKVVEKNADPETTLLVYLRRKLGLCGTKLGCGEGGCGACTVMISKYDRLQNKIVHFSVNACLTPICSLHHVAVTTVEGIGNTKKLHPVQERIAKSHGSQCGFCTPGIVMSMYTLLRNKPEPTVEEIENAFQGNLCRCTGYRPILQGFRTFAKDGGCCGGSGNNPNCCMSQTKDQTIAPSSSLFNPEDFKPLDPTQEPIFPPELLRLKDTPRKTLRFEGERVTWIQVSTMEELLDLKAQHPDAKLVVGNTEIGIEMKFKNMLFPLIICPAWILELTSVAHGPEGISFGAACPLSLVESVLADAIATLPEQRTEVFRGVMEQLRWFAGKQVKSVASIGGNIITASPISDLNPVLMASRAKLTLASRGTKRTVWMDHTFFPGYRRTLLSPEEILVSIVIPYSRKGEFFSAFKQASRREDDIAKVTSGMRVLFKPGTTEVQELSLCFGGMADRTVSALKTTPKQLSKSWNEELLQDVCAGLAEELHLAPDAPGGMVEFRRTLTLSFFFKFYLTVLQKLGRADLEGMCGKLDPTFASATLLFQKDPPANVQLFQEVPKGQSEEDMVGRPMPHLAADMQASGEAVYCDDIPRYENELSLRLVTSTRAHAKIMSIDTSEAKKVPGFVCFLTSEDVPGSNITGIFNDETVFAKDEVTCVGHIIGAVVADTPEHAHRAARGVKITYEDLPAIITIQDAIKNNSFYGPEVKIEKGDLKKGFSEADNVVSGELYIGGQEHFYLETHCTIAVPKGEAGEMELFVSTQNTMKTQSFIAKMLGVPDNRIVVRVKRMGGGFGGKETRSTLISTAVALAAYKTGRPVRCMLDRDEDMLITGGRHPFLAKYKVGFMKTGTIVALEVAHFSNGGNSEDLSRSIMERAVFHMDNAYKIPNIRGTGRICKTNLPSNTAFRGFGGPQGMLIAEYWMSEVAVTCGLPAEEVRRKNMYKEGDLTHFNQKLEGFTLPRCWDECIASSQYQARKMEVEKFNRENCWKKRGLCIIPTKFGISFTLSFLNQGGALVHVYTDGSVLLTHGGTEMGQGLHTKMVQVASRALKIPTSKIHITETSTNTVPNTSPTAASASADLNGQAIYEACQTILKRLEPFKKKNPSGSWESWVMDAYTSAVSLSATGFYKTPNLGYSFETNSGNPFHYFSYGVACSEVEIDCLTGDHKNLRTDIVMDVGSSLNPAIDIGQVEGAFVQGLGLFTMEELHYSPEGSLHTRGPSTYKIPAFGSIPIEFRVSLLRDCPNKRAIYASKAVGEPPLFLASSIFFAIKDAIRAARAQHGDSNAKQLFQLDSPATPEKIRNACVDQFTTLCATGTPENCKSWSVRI

As a reminder, the IC50 is the concentration needed to halve the response being measured. Read a low IC50 as greater potency. In test [1], `CSc1ccc(-c2cnn3c(O)ncnc23)cc1SC` [Example 41, 8-[(3,4-Bismethylthio)phenyl]-4-hydroxypyrazolo[1,5-a]-1,3,5-triazine] had an IC50 of 24 nM. In addition, in test [2], the inhibition in vivo at 5 mg/kg was 60.1%.
Regarding `COc1cc(-c2cnn3c(O)ncnc23)ccc1[S+]([O-])c1ccccc1` (centres unmarked) [Example 187, 4-Hydroxy-8-(3-methoxy-4-phenylsulfinylphenyl)pyrazolo[1,5-a]-1,3,5-triazine], it took 25 nM to reach half-maximal inhibition in test [1] (IC50). Further, the inhibition in vivo at 5 mg/kg in test [2] was found to be 63.9%.
The like results for `Cc1cc(-c2cnn3c(O)ncnc23)ccc1Sc1ccccc1` [Example 33, 4-Hydroxy-8-(3-methyl-4-phenylthiophenyl)pyrazolo[1,5-a]-1,3,5-triazine] were, in that order, 18 nM and 62%.
Taken in the same sequence, the figures for `[O-][S+](c1ccccc1)c1ccc(-c2cnn3c(O)ncnc23)cc1` (centres unmarked) [Example 170, 4-Hydroxy-8-(4-phenylsulfinylphenyl)pyrazolo[1,5-a]-1,3,5-triazine] were 8 nM and 57.2%.
